# Several values for one entry are separate records, joined by “and”; a condition that tells them apart may be missing. Equal values may be shown once.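 Dose response: 5 concentrations. Exposure: 48 h. Format: 96-well plates. Endpoint: linear interpolation; highest concentration if not reached. GI50 = concentration required for 50% inhibition of growth. TGI: concentration producing complete growth inhibition.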
# Assays:
# Assay in all cases: DTP human tumour cell line panel, 48 h
# SF-268 CNS = test system: SF-268 CNS
# T-47D breast = test system: T-47D breast
# NCI-H23 lung = test system: NCI-H23 lung
# NCI-H522 lung = test system: NCI-H522 lung
# OVCAR-5 ovarian = test system: OVCAR-5 ovarian
# 786-0 renal = test system: 786-0 renal
# HT29 colon = test system: HT29 colon
# MDA-MB-435 = test system: MDA-MB-435
# A549 NSCLC = test system: A549 NSCLC
# CAKI-1 renal = test system: CAKI-1 renal
SMILES,GI50 (SF-268 CNS),TGI (SF-268 CNS),GI50 (T-47D breast),TGI (T-47D breast),GI50 (NCI-H23 lung),TGI (NCI-H23 lung),GI50 (NCI-H522 lung),TGI (NCI-H522 lung),GI50 (OVCAR-5 ovarian),TGI (OVCAR-5 ovarian),GI50 (786-0 renal),TGI (786-0 renal),GI50 (HT29 colon),TGI (HT29 colon),GI50 (MDA-MB-435),TGI (MDA-MB-435),GI50 (A549 NSCLC),TGI (A549 NSCLC),GI50 (CAKI-1 renal),TGI (CAKI-1 renal)
C=C(CNC(=O)c1ccccc1)c1ccc(C(=O)Nc2ccccc2N)cc1,11.7 µM,> 100 µM,4.99 µM,> 100 µM,18.7 µM,> 100 µM,2.6 µM,10.1 µM,2.22 µM,> 100 µM,7.55 µM,> 100 µM,3.86 µM,> 100 µM,6.88 µM,> 100 µM,9.52 µM,> 100 µM,4.09 µM,45.4 µM
Nc1c(C(=O)N/N=C/c2ccc(-c3cc(Cl)c(Cl)cc3Cl)o2)cnn1-c1ccnc2c(C(F)(F)F)cccc12,5.2 µM,> 100 µM,2.93 µM,> 100 µM,3.32 µM,47.2 µM,3.37 µM,31.1 µM,5.29 µM,> 100 µM,3.96 µM,> 100 µM,2.73 µM,28 µM,3.85 µM,> 100 µM,4.3 µM,> 100 µM,4.21 µM,> 100 µM
COc1cc(F)c(/C=C/c2cc(/C=C/c3cc(OC)c(OC)cc3F)n(-c3cc(F)cc(F)c3)n2)cc1OC,3.15 µM,13.6 µM,3.46 µM,20.7 µM,2.53 µM,7.15 µM,1.91 µM,5.47 µM,2.96 µM,10.3 µM,1.63 µM,3.22 µM,2.27 µM,6.81 µM,2.03 µM,4.63 µM,3.29 µM,11.4 µM,12.8 µM,34.4 µM
Nc1ccc(C(OC(=O)c2cc3ccccc3c(Cc3c(O)c(C(=O)OC(c4ccc(N)cc4)(c4ccc(N)cc4)c4ccc(N)cc4)cc4ccccc34)c2O)(c2ccc(N)cc2)c2ccc(N)cc2)cc1,0.471 µM,18.7 µM,0.405 µM,18.9 µM,0.645 µM,17.3 µM,0.588 µM,12.4 µM,2.7 µM,17.2 µM,1.76 µM,20.2 µM,1.79 µM,11.6 µM,2.5 µM,30.3 µM,0.774 µM,21.7 µM,13.6 µM,> 100 µM
OCC(CCc1c[nH]c2ccccc12)c1c[nH]c2ccccc12 (centres undefined),–,32.4 µM,–,35.6 µM,–,30 µM,–,29.4 µM,–,33.2 µM,–,29.5 µM,–,30.7 µM,–,34.3 µM,–,47.2 µM,–,77.4 µM
O=C(CCSc1ccnc2c(C(F)(F)F)cccc12)N/N=C/c1cc(Cl)c(Cl)cc1Cl,23.2 µM,50.3 µM,22 µM,59.9 µM,24.1 µM,52.1 µM,31.6 µM,> 100 µM,26.1 µM,64.6 µM,20.3 µM,35.1 µM,17.8 µM,33.9 µM,27.3 µM,75.4 µM,24.8 µM,53.5 µM,21.4 µM,43.4 µM
CCc1ccc2nccc(NCCCN(C)C)c2c1[N+](=O)[O-],–,> 100 µM,–,> 100 µM,–,> 100 µM,–,> 100 µM,–,90.8 µM,–,> 100 µM,–,> 100 µM,–,> 100 µM,–,> 100 µM,–,> 100 µM
CC1(C)CC([P+](c2ccccc2)(c2ccccc2)c2ccccc2)=NN1,5.09 µM,> 100 µM,0.91 µM,8.44 µM,4.28 µM,> 100 µM,2.52 µM,> 100 µM,18.7 µM,> 100 µM,26.6 µM,> 100 µM,3.29 µM,> 100 µM,2.79 µM,> 100 µM,5.1 µM,> 100 µM,> 100 µM,> 100 µM
CN(C)CCSCCO,–,> 100 µM,–,> 100 µM,–,> 100 µM,–,> 100 µM,–,> 100 µM,–,> 100 µM,–,> 100 µM,–,> 100 µM,–,> 100 µM,–,> 100 µM
c1ccc(B2OCC(C3OB(c4ccccc4)OC4COB(c5ccccc5)OC43)O2)cc1 (centres undefined),–,> 100 µM,–,> 100 µM,–,> 100 µM,–,> 100 µM,–,> 100 µM,–,> 100 µM,–,> 100 µM,–,> 100 µM,–,> 100 µM,–,> 100 µM
O=C(N/N=C/c1ccc(Cl)cc1Cl)c1ccc2nc(-c3ccc(Cl)cc3)[nH]c2c1,2.08 µM,4.35 µM,1.79 µM,3.83 µM,1.93 µM,4.43 µM,2.24 µM,5.85 µM,1.85 µM,3.97 µM,1.79 µM,3.48 µM,1.97 µM,5.47 µM,1.73 µM,3.35 µM,2.16 µM,4.53 µM,1.7 µM,3.29 µM
CN(C)CCCCn1ccc2c1C(=O)c1c(c(O)c3ccccc3c1O)C2=O,11 µM,30.6 µM,3.77 µM,22.8 µM,11.2 µM,23.3 µM,33.8 µM,> 100 µM,12.9 µM,25.6 µM,12.2 µM,25.3 µM,5.53 µM,18.4 µM,2.01 µM,3.71 µM,18.9 µM,36.8 µM,4.02 µM,17.5 µM
Clc1cc(-c2ccccc2)nc2ccccc12,–,> 100 µM,–,> 100 µM,–,> 100 µM,–,34 µM,–,> 100 µM,–,> 100 µM,–,> 100 µM,–,95.4 µM,–,> 100 µM,–,> 100 µM
Cn1cnc2c(F)c(Nc3ccc(Br)cc3F)c(C(=O)NOCCO)cc21,> 2.05 µM and 50.5 µM,> 100 µM,> 100 µM,> 100 µM,0.227 µM and 0.215 µM,> 100 µM,> 63.2 µM,> 100 µM,0.0286 µM and 0.022 µM,> 48.4 µM,> 100 µM,> 100 µM,0.0263 µM and 0.0316 µM,> 100 µM,0.0609 µM and 0.0547 µM,> 100 µM,5.87 µM,> 100 µM,5.94 µM,> 100 µM
Cc1ncc(C(=O)Nc2ccc(CN3CCN(C)CC3)c(C(F)(F)F)c2)cc1C#Cc1c(N)ncc2ccccc12,0.448 µM,1.09 µM,1.96 µM,7.7 µM,0.439 µM,1.02 µM,0.46 µM,0.992 µM,0.415 µM,0.985 µM,0.568 µM,1.05 µM,0.0978 µM,0.585 µM,0.163 µM,0.624 µM,0.488 µM,1.03 µM,0.648 µM,2.35 µM
Cc1ccc(Nc2cc(C)nc(NCCCNc3ccnc4cc(Cl)ccc34)n2)cc1,1.52 µM,3.14 µM,1.75 µM,4.14 µM,1.78 µM,3.63 µM,1.77 µM,3.37 µM,1.85 µM,4.62 µM,1.73 µM,3.31 µM,0.481 µM,2.06 µM,1.41 µM,2.7 µM,1.65 µM,3.41 µM,1.46 µM,2.85 µM
COc1cccc(N=N/C(=N\NC(=O)c2cc(Br)ccc2O)c2ccc(N(CCC#N)CCC#N)cc2OC)c1,21.9 µg/mL,122 µg/mL,64 µg/mL,> 150 µg/mL,68.5 µg/mL,> 150 µg/mL,60.5 µg/mL,> 150 µg/mL,79.2 µg/mL,> 150 µg/mL,79.2 µg/mL,> 150 µg/mL,30 µg/mL,> 150 µg/mL,67.8 µg/mL,> 150 µg/mL,49.3 µg/mL,> 150 µg/mL,88.6 µg/mL,> 150 µg/mL
C[C@@H](COCCC(=O)N1CCN(c2ncc(C(F)(F)F)cn2)CC1)Nc1cn[nH]c(=O)c1C(F)(F)F,42.8 µM,> 100 µM,33.1 µM,> 100 µM,28.3 µM,> 100 µM,96.9 µM,> 100 µM,> 100 µM,> 100 µM,59.1 µM,> 100 µM,> 100 µM,> 100 µM,> 100 µM,> 100 µM,45.7 µM,> 100 µM,14.1 µM,> 100 µM
FC(F)(F)c1cccc2c(SCCc3n[nH]c(=S)o3)ccnc12,85.6 µM,> 100 µM,29.3 µM,93.3 µM,40 µM,> 100 µM,22.6 µM,90 µM,97.6 µM,> 100 µM,> 100 µM,> 100 µM,64.2 µM,> 100 µM,45.4 µM,> 100 µM,51.6 µM,> 100 µM,45.1 µM,> 100 µM
C=C1C(OC/C=C/COC2O[C@@H]3O[C@@]4(C)CC[C@H]5[C@H](C)CC[C@@H](C2=C)[C@@]35OO4)O[C@@H]2O[C@@]3(C)CC[C@H]4[C@H](C)CC[C@@H]1[C@@]24OO3 (some centres undefined),5.87 µM,30.9 µM,0.0158 µM,21.2 µM,0.0708 µM,14.2 µM,5.17 µM,69.6 µM,0.0489 µM,18.8 µM,0.578 µM,18.7 µM,0.0438 µM,> 49.2 µM,0.301 µM,21.5 µM,7.48 µM,> 60.5 µM,1.63 µM,21.7 µM
Nc1cc(S(N)(=O)=O)ccc1SSc1ccc(S(N)(=O)=O)cc1N,–,> 100 µM,–,> 100 µM,–,> 100 µM,–,> 100 µM,–,> 100 µM,–,> 100 µM,–,> 100 µM,–,> 100 µM,–,> 100 µM,–,> 100 µM
CCOC(=O)C(C(=O)OCC)C(=O)c1ccccc1C(=O)c1ccccc1,–,> 100 µM,–,> 100 µM,–,> 100 µM,–,> 100 µM,–,> 100 µM,–,> 100 µM,–,> 100 µM,–,> 100 µM,–,> 100 µM,–,> 100 µM
COc1c(Cl)ccc2c(-c3nc4cc(Cl)c(F)cc4s3)cc(=O)oc12,2.93 µM,8.89 µM,13 µM,45.5 µM,3.25 µM,> 73.7 µM,1.6 µM,3.38 µM,15.3 µM,> 53.3 µM,2.64 µM,5.65 µM,2.76 µM,6.54 µM,25 µM,> 66.1 µM,17.9 µM,> 100 µM,1.98 µM,–
COc1ccc(Cn2cc3c(c2-c2cc(OC)c(OC)c(OC)c2)CCc2cnoc2-3)cc1N,0.0792 µM,> 100 µM,0.034 µM,> 100 µM,0.0507 µM,> 100 µM,0.018 µM,0.058 µM,0.324 µM,> 100 µM,0.0599 µM,> 23.2 µM,0.307 µM,1.71 µM,0.0141 µM,0.0384 µM,0.0821 µM,> 100 µM,0.0319 µM,> 100 µM
NS(=O)(=O)c1ccc(-n2ncc3c(Nc4ccccc4)ncnc32)cc1,43.1 µM,> 100 µM,24.2 µM,> 100 µM,1.37 µM,23.8 µM,51.1 µM,> 100 µM,34.9 µM,> 100 µM,18.3 µM,55.7 µM,3.33 µM,15.7 µM,46.2 µM,> 100 µM,14.3 µM,> 100 µM,23.7 µM,> 100 µM
CCCCCCCCCCCCCCCCCCOc1ccccc1CC(=O)NCC[N+](C)(C)C,3.34 µM,39.9 µM,7.6 µM,58.9 µM,5.07 µM,35.4 µM,2.67 µM,8.24 µM,2.68 µM,12.8 µM,3.57 µM,78.7 µM,3.09 µM,26.7 µM,10.6 µM,55.1 µM,4.91 µM,51.8 µM,4.39 µM,36.7 µM
